The nature of data set [1]: Mouse pharmacokinetic assay (intragastric administration, plasma HPLC-MS/MS). The class given is in vivo. Conditions: ICR mice. The protocol:
ICR mice were intragastrically administered with the compound at 10 mg/kg or 20 mg/kg. At different time points (0.25 h, 0.5 h, 1 h, 2 h, 4 h, 8 h, 24 h) after administration, the mice blood was collected from the orbit. The collected whole blood was anticoagulated with heparin sodium and centrifuged at 3000 g to obtain mouse plasma samples. Methanol was added to precipitate proteins. The drug concentration in the mouse plasma after administration was determined by the HPLC-MS/MS method. A drug concentration-time curve was plotted and the pharmacokinetic parameters were calculated. The pharmacokinetic behavior in mice after the compound administration was described by means of non-compartment model statistical moment parameters.

The subject of data set [2] is human acute myeloid leukemia MV-4-11 cells. The experiment in a line: In vitro inhibitory effect on the proliferation of MV-4-11 cells (MTT, 72 h). The format is cell-based. Conditions: MV4-11, 72 hours exposure. The protocol:
The human acute myeloid leukemia MV-4-11 cells used in the assay were purchased from Shanghai Institutes for Biological Sciences, Chinese Academy of Sciences. The complete culture medium required for cell culture was IMDM (GIBCO Company), which was supplemented with 10% fetal bovine serum (GIBCO Company). Cells were cultured in a 37° C., 5% CO2 incubator. The reagents used in the assay included dimethyl sulfoxide (purchased from Tianjin Kemiou Chemical Reagent Co., Ltd.), and MTT (Shanghai Topbiochem Co., Ltd., CAS. NO. 298-93-1). The test substance was sealed and stored at 4° C.
Dimethyl sulfoxide was used as the solvent to fully dissolve the test substance and prepare a stock solution with a concentration of 5×10^−2 mol/L. The stock solution was stored at −20° C. A complete culture medium was used as the diluent, and the test substance was diluted to different concentrations in a gradient for later use. 100 µL/well (2×10^4 cells/well) of a suspension of MV-4-11 cells in the complete culture medium was added to a 96-well culture plate. 100 μL/well of the corresponding test substances at different concentrations were added respectively. 8 concentrations were set for each test substance, and 3 duplicate wells were set for each concentration. The plate was cultured in a 37° C., 5% CO2 incubator. 20 μL/well of MTT was added after 72 hours of exposure to the test substances. The plate was cultured for 4 hours in a 37° C., 5% CO2 incubator. The supernatant was discarded, and 150 μL/well of dimethyl sulfoxide was added. The plate contents were oscillated and mixed evenly. The microplate reader was used to detect the OD value at a wavelength of 550 nm. The well only containing the cell suspension without test substance was a control well, and the well only containing the complete culture medium was a blank well. The inhibition rate of the cell growth was calculated with the following formula: • Inhibition rate=(ODcontrol well-ODtest well)/(ODcontrol well-ODblank well)*100%. According to the inhibition rates at each concentration, SPSS software was used to calculate the half inhibitory concentration IC50 value.

Data set [3] concerns human lung adenocarcinoma NCI-H441 cells. The experiment in a line: In vitro inhibitory effect on the proliferation of NCI-H441 cells (3D CellTiter Glo, 5 days). The class given is cell-based. Conditions: 120 h, 3D cell viability. The protocol:
The human lung adenocarcinoma cell NCI-H441 used in the assay was purchased from ATCC. The complete culture medium required for cell culture was RPMI 1640 Medium (GIBCO Company), which was supplemented with 10% fetal bovine serum (GIBCO Company). Cells were cultured in a 37° C., 5% CO2 incubator. The reagents used in the assay included dimethyl sulfoxide (purchased from Sigma), a 3D Cell Viability assay kit (purchased from Promega), and the control substance TW-45 used in the assay was obtained homemade. The test substance was sealed and stored at 4° C.
Dimethyl sulfoxide was used as the solvent to fully dissolve the test substance and prepare a stock solution with a concentration of 1×10^−2 mol/L. The stock solution was stored at −20° C. A complete culture medium was used as the diluent, and the test substance was diluted to different concentrations in gradient for later use (the final test concentration was 10000, 3333, 1111, 370, 123, 41, 13.7, 4.5, 1.5, and 0.5 nM). Cells were cultured in a 37° C., 5% CO2 incubator for 5 days. Detection was made on the fifth day. 30 μL of reagent (Celltiter Glo Assay Kit-3D) was added to each well and the plate was shaken on a plate oscillator (protected from light) for 30 minutes. The plate was incubated at room temperature (protected from light) for 120 minutes. Chemiluminescence values were recorded with a Multiplate reader. […]

[4] abbreviates: mouse, po, intragastric, 10 mg/kg, plasma.

SMILES strings stand for the structures.

Turning to `[2H][C@@]1(N)c2ccccc2OC12CCN(c1nc(N)c(Sc3ccnc(N)c3Cl)nc1C(C)=O)CC2` [Compound 56, (R)-1-(5-amino-6-((2-amino-3-chloropyridine-4-yl)sulfanyl)-3-(3-amino-3-deuterium-spiro[benzofuran-2,4′-piperidine]-1′-yl)pyrazine-2-yl)ethanone], the “exposure and absorption in mice (in words)” value in data set [1] (intragastric administration) is “relatively high exposure in mice and both were well absorbed in vivo”. The compound also gave a peak concentration (Cmax) in data set [1] (setting [4]) of 3570 ng/mL. The Tmax in data set [1] (setting [4]) turned out to be 30 min. The AUC(0-t) in data set [1] (mouse, po, intragastric, 10 mg/kg, plasma, read-out: AUC0-24 h) was found to be 18300 ng·h/mL. Further, the half-inhibitory concentration (IC50) in data set [2] and in data set [3] was at most 20 nM each time.

The values above are taken from patent US20240376119A1, “SPIRO COMPOUND AND USE THEREOF” (CSPC Zhongqi Pharmaceutical Technology (Shijiazhuang) Co., …, priority 2021, published 2024).
